The test system of data set [1] is MITOL and mitochondrial proteins in C2C12 myoblasts. Description: Western blot of mitochondrial proteins in C2C12 myoblasts. It counts as cell-based, mouse. To be noted: 48 h; for levels of Tom20, Mfn2, HSP60 and ATP5a proteins / protein level of MITOL: C2C12, 5 μM or 10 μM. On the procedure: Murine myoblast C2C12 cells were used for various cellular experiments in this study. Two different sources of C2C12 cells were used depending on the experiment: C2C12 cells obtained from RIKEN BRC (RCB0987) were used for gene expression, mtDNA quantification, and mitochondrial morphology analysis; C2C12 cells from ATCC (CRL-1772) were used for OCR analysis. Cells were cultured in Dulbecco’s Modified Eagle Medium (DMEM; Sigma-Aldrich or Nacalai Tesque), supplemented with 10% FBS and 1% penicillin–streptomycin. Cells were maintained in a humidified incubator at 37°C with 5% CO2.
For cellular experiments, berberine or quinoid-type berberrubine (Q-BRB) was dissolved in DMSO, and berberrubine acetic acid adduct (AcA-BRB) was dissolved in distilled H2O. Each compound was diluted in culture medium to the indicated final concentrations.
Proteins in sample buffer were separated by SDS-PAGE and transferred to Immobilon-P PVDF membranes (IPVH00010, Millipore). Blots were probed with the indicated antibodies, and protein bands on the blot were visualized using Chemi-Lumi One L (07880-70, Nacalai Tesque) or Immobilon Western Chemiluminescent HRP Substrate (WBKLS0500, Millipore). Band images were captured using a LuminoGraph I imager (WSE-6100, ATTO). Relative band intensities were quantified using Fiji/ImageJ software. Unprocessed western blot images corresponding to the data presented in the main and supplementary figures are provided in Supplementary Figures 11–16.
(In general: In western blotting, separated proteins are transferred to a membrane and probed.)

Data set [2] is described as follows: In vivo pharmacokinetics, single oral dose. To be noted: mice; for AUC(0-inf) / Cmax / Tmax / half-life / CL/F: male, C57BL/6 N, mouse, plasma; for CL/F: read-out: CLtot/F; for time to reach maximum plasma concentration (Cmax): oral, both 10 mg/kg and 100 mg/kg. Also on record: species or system mouse. The protocol: All mouse experiments were approved by and conducted in accordance with the guidelines of the Animal Experiment Committee of the University of Tokyo (permission number: P29-24). The compounds were suspended in 0.5% methylcellulose and orally administered to 8-week-old male C57BL/6 N mice (Oriental Yeast) following an overnight fast. The dosage of the compound was 10 or 100 mg/10 mL/kg. Serial blood samples ( < 50 μL per time point) were collected from the caudal vein of each mouse at 15 and 30 min, and at 1, 2, 4, 6 and 24 h post-dose using EM MYSTAR Hematocrit Capillary treated with heparin (AS ONE). Plasma was obtained by centrifugation of the blood samples. After the final blood sampling at 24 h, the mice were humanely euthanized.
Before pharmacokinetic analyses, plasma concentrations were averaged at each time point. Concentrations below the limit of quantitation were excluded from the analysis. Pharmacokinetic analyses were conducted using PhoenixWinNonlin version 8.3 (Pharsight Corp). The maximum plasma concentrations (Cmax) and times to achieve maximum plasma concentrations (Tmax) were obtained directly from the plasma concentration-time curves. The area under the concentration-time curve from zero to infinity (AUC∞) was obtained using the linear trapezoidal method in the noncompartmental analysis module. The software was allowed to determine the best-fit line for the elimination slope for all calculations. Other parameters such as elimination half-life period (t1/2), the apparent total body clearance CLtot/F, and volume of distribution Vdz/F were further calculated.
(§1) An LCMS-8060 instrument equipped with a Shimadzu Nexera series LC system (Shimadzu) was used. Berberrubine and IS were analyzed in multiple reaction monitoring mode under electronspray ionization conditions. The analytical column used was a CAPCELL PAK C18 MGIII (3 μm × 2.0 mm ID × 35 mm; OSAKA SODA) at 50 °C. The gradient mobile phase consisted of 0.1% formic acid in water (mobile phase A) and 0.1% formic acid in acetonitrile (mobile phase B) at a total flow rate of 1 mL/min. The initial mobile phase composition was 10% B, which was held constant for 0.5 min, increased in a linear fashion to 90% B over 1 min, then held constant for 0.8 min, and finally brought back to the initial condition of 10% B over 0.01 min and reequilibrated for 1 min. The transitions (precursor ion > product ion) of berberrubine and IS (methyl testosterone) are 322.11 > 307.1 and 303.1 > 109.1 (positive), respectively.

A short description of data set [3]: Unbound fraction in mouse plasma (equilibrium dialysis). To be noted: pH 7.4, equilibrium dialysis 6 h, 37 °C, read-out: Plasma protein binding (fraction unbound) mouse (pH7.4). It counts as in vitro ADME. The protocol:
An equilibrium dialysis apparatus was used to determine the unbound fraction for each compound in human or mouse plasma. High Throughput Dialysis Model HTD96b and Dialysis Membrane Strips MWCO 12–14 kDa (HTDialysis) were used. Plasma was spiked with the test compound (1 μM), and 150 μL aliquots were loaded into the apparatus and dialyzed versus 150 μL of 0.1 M phosphate buffer (pH 7.4) at 37 °C for 6 h by rotation at 80 rpm. The unbound fraction was calculated as the ratio of receiver side (buffer) to donor side (plasma) concentrations. Two technical replicates were performed.
(In general: In equilibrium dialysis only unbound substance equilibrates across the membrane.)

Data set [4] in a line: Water solubility, roughly examined. It counts as physicochemical. On the procedure:
Finally, we compared the water solubility of the three berberrubine forms. The solubility of three compounds, the reddish-black solid (quinoid-type berberrubine), the reddish-brown solid (berberrubine acetic acid salt), and the yellow solid (berberrubine acetic acid adduct), in water was roughly examined. […] On the other hand, the reddish-brown solid dissolved in about 30 mg in 1 mL of water.

Data set [5] in a line: Repeated oral administration: plasma concentration and tissue distribution. It counts as in vivo, mouse. To be noted: mice, 7 days. The protocol:
In the repeated administration study, animals were treated according to the group allocations as described in the main text and corresponding to Supplementary Figure 2d. Compounds were administered orally either via drinking water or mixed feed for 7 or 28 days, and plasma, brain, heart, and skeletal muscle samples were collected at the final time point (8:00–10:00 a.m.) on the day of sacrifice (n = 4 per group). Blood was drawn from the abdominal vena cava under terminal anesthesia and plasma was separated by centrifugation using heparinized tubes. Tissue samples were homogenized with four volumes of phosphate-buffered saline. Plasma and tissue homogenate samples were precipitated with acetonitrile containing an internal standard (IS) at a volume fourfold or greater than that of the sample, and then centrifuged at 15,000 × g for 10 min at 4 °C. The resulting supernatants were analyzed by LC-MS/MS.
as §1

Where [6] appears, read: 2 mg/mL AcA-BRB in drinking water.

The values below come from publication PMC13091788 (NPJ Aging, 2026).

Molecules are shown by their SMILES. Where two headings read alike, the source gives them in different places.

What is called AUC(0-inf) is total exposure, with the tail of the curve extrapolated. As usually defined, the Cmax is the peak of the concentration-time curve. The term Tmax denotes the time from dosing to the highest level. What is called half-life is the time in which the quantity being followed falls by half. The term fraction unbound denotes the share of the substance not bound to proteins or other matrix. With `COc1ccc2cc3n(cc-2c1=O)CCc1cc2c(cc1-3)OCO2` [Q-BRB, quinoid-type berberrubine], in data set [1], the “levels of Tom20, Mfn2, HSP60 and ATP5a proteins” value is on record as “dose-dependent trend in elevating”; the “protein level of MITOL” value is recorded as “significantly increased”. In addition, in data set [2] (single oral gavage 10 mg/kg), the AUC(0-inf) was 76.5 ng·h/mL, the Cmax worked out at 126 ng/mL, the time to peak (Tmax) came out at 15 min and the half-life was 89.4 min. Also, in data set [2] (single oral gavage 10 mg/kg), the CL/F was determined as 2180 mL/min/kg and the Vdz/F turned out to be 281 L/kg. In data set [2] (single oral gavage 100 mg/kg), the area under the curve AUC(0-inf) worked out at 5110 ng·h/mL, the concentration peaked (Cmax) at 8340 ng/mL, the Tmax amounted to 15 min and the half-life was 299 min. Also, in data set [2] (single oral gavage 100 mg/kg), the CL/F was 326 mL/min/kg and the Vdz/F is reported as 141 L/kg. Besides, the “time to reach maximum plasma concentration (Cmax)” value in data set [2] is at most 0.25 h. The fraction unbound at 6 h, 1 μM in data set [3] worked out at 0.162. Also, the “dissolution in 1000 mL of water” value in data set [4] is listed as “not possible to observe any dissolution”.

One may read the solubility as the dissolved amount per volume that the medium holds. On to `COc1ccc2cc3[n+](cc2c1O)CCc1cc2c(cc1-3)OCO2` [AcA-BRB, berberrubine acetic acid adduct], for which, in data set [5] (2 mg/mL in drinking water), the “plasma berberrubine concentration compared to all other groups” value is given as “significantly higher”. Moreover, in data set [1], the “levels of Tom20, Mfn2, HSP60 and ATP5a proteins” value is given as “dose-dependent trend in elevating”; the “protein level of MITOL” value is “significantly increased”. Besides, in data set [2] (single oral gavage 10 mg/kg), the AUC(0-inf) turned out to be 95.7 ng·h/mL, the maximum concentration (Cmax) was 101 ng/mL, the Tmax stood at 15 min and the half-life was 101 min. In addition, in data set [2] (single oral gavage 10 mg/kg), the CL/F came to 1740 mL/min/kg and the Vdz/F came to 253 L/kg. For the same compound, in data set [2] (single oral gavage 100 mg/kg), the total exposure AUC(0-inf) is 2130 ng·h/mL, the maximum concentration (Cmax) stood at 3060 ng/mL, the Tmax was found to be 15 min and the half-life is 259 min. For the same compound, in data set [2] (single oral gavage 100 mg/kg), the CL/F was 783 mL/min/kg and the Vdz/F is reported as 292 L/kg. In addition, the “time to reach maximum plasma concentration (Cmax)” value in data set [2] is at most 0.25 h. For the same compound, in data set [3], the fraction unbound at 6 h, 1 μM came out at 0.203. The same compound came in with a solubility in data set [4] (roughly examined) of at least 1000 mg/mL.

In the case of `COc1ccc2cc3[n+](cc2c1O)CCc1cc2c(cc1-3)OCO2` [berberrubine], in data set [5] (setting [6]), the “berberrubine concentration in the heart compared to other tissues” value is “tendency toward higher concentrations” and the “berberrubine level in the brain” value is listed as “exceptionally low”. For the same compound, the “MITOL expression (western blot)” value in data set [1] (C2C12, 10 μM, berberrubine used as quinoid-type form) is “significantly upregulated”. Moreover, the “expression of other mitochondrial-associated proteins (Tom20, Mfn2, HSP60, ATP5a)” value in data set [1] (C2C12, 10 μM, quinoid-type form) is “markedly increased”. For the same compound, the “protein levels of OPA1, Fis1 and MFF” value in data set [1] (C2C12, Q-BRB or AcA-BRB 10 μM) is on record as “increased”. In data set [4], the “dissolution in 1000 mL of water” value was “did not dissolve”.
